Experimental data reported in paper PMC5458078, “Global mapping of CARM1 substrates defines enzyme specificity and substrate recognition” (Nature Communications, 2017).

Experiments:
MCF7 cells = assay: Quantitative nanoLC-MS/MS (TMT) of ADMA-containing peptides, CARM1 KO vs parental; format: cell-based, human; set-up: Fold change KO/WT: scale not given here
MCF7 CARM1 KO cells = assay: Quantitative MS of ADMA-containing peptides in MCF7 CARM1 KO cells expressing CARM1 28-608 or CARM1 140-608, and in CARM1 KO; format: cell-based, human; settings: for CARM1 140-608/WT: CARM1 140-608 vs WT; for KO/WT: KO vs WT
[1] = MCF7 CARM1 knockout vs wild type, 3 biological replicates each, values are on log2 scale
[2] = MCF7, CARM1 knockout vs wild type, n = 3 each
[3] = ADMA-containing peptide, MCF7, CARM1 knockout (KO1-3) vs wild type (WT1-3), TMT 6-plex experiment #1
[4] = MCF7, CARM1 KO vs WT, three biological replicates each
[5] = CARM1 KO vs wild type MCF7 cells, 3 biological replicates each
[6] = MCF7, CARM1 KO (KO1-KO3) vs wild type (WT1-WT3)
[7] = mean of 3 replicates (log2 scale)
[8] = ADMA-containing peptide, CARM1 knockout (KO) vs wild type (WT) MCF7 cells, 6-plex TMT experiment #1, three biological replicates each, sheet "MCF7"

## INPGLEYrQHLLLR
MCF7 cells; [1]
  Fold change KO/WT: -1.551

## INPGLEYrQHLLLrGPPPGSANPPR
MCF7 cells; [1]
  Fold change KO/WT: -0.6044

## LDrICEGIRPQIMNGPLHPRPLVALLDGR
MCF7 cells; [2]
  Fold change KO/WT: -0.535

## LISVQTMQrGNMNCGAFQAHQMR
MCF7 cells; [3]
  Fold change KO/WT: -0.03531

## LLGQRPGPYDrPIGGRGGYYGAGrGSMYDR
MCF7 cells; [1]
  Fold change KO/WT: 0.09272

## LLGQRPGPYDrPIGGrGGYYGAGrGSMYDR
MCF7 cells; [1]
  Fold change KO/WT: -0.2245

## LPNRDFAFYNPrLQGK
MCF7 cells; [4]
  Fold change KO/WT: -1.34

## LPPDRYCLTAPNYrLK
MCF7 cells; [3]
  Fold change KO/WT: -0.4021

## LQHMQQQQPPPrLINFQNHSPKPNGPVLPPHPQQLrYPPNQNIPR
MCF7 cells; [3]
  Fold change KO/WT: -0.9847

## LSLPPIHTLYQPrFGNSQSFTSK
MCF7 cells; [3]
  Fold change KO/WT: -2.191

## LTrGQLQHLGTR
MCF7 cells; [5]
  Fold change KO/WT: 0.1695

## MGTPVPRPPQDMGQIGVRTPLGPrVAAPVGPVGPTPTVLPMGAPVPrPrGPPPPPGDENR
MCF7 cells; [6]
  Fold change KO/WT: -3.578

## MGTPVPRPPQDMGQIGVrTPLGPR
MCF7 CARM1 KO cells; [7]
  CARM1 140-608/WT: -1.0135
  KO/WT: -2.444

## MGTPVPRPPQDMGQIGVrTPLGPRVAAPVGPVGPTPTVLPMGAPVPrPR
MCF7 cells; [6]
  Fold change KO/WT: -3.4667

## MGTPVPRPPQDMGQIGVrTPLGPrVAAPVGPVGPTPTVLPMGAPVPrPRGPPPPPGDENR
MCF7 cells; [6]
  Fold change KO/WT: -1.953

## MGTPVPrPPQDMGQIGVRTPLGPR
MCF7 cells; [6]
  Fold change KO/WT: -2.466

## MQLQQrLQGQQFLNQSrQALELK
MCF7 cells; [8]
  Fold change KO/WT: -3.454

## MrPQPYGGTNPYSQQQGPPSGPQQGHGYPGQPYGSQTPQrYPMTMQGR
MCF7 cells; [4]
  Fold change KO/WT: -3.351

## NrGFYPWGQYNrGGYGNYR
MCF7 cells; [3]
  Fold change KO/WT: -0.1483

## PABP1: a known CARM1 substrate
MCF7 cells; CARM1 KO vs parental MCF7 cells
  Decrease of ADMA site abundance on CARM1 loss: slightly over twofold

## PVPPPPAPPPPPTFALANTEKPTLNKTEQAGrNALLSDISK
MCF7 cells; [5]
  Fold change KO/WT: -1.049

## QGSIGLYTQNQPLPAGGPRVDPYrPVRLPMQK
MCF7 cells; [8]
  Fold change KO/WT: -1.665

## QGSIGLYTQNQPLPAGGPrVDPYrPVRLPMQK
MCF7 cells; [8]
  Fold change KO/WT: -2.102

## QLrMQLQQR
MCF7 cells; [8]
  Fold change KO/WT: -2.307

## QQQQQQQQQQQQLDLLFHQrIQISLWPR
MCF7 cells; [2]
  Fold change KO/WT: -2.494

## QVTITGSAASISLAQYLINAr
MCF7 cells; [8]
  Fold change KO/WT: -0.8472

## RPQLYGMGSNPHSQPQQSSPYPGGSYGPPGPQrYPIGIQGR
MCF7 cells; [4]
  Fold change KO/WT: -1.511

## SAGGRPGSGPQLGTGrGTLR
MCF7 cells; [2]
  Fold change KO/WT: -0.3785

## SLGSVQAPSYGARPVSSAASVYAGAGGSGSrISVSR
MCF7 cells; [1]
  Fold change KO/WT: -1.494

## SNSGPYrGGYGGGGGYGGSSF
MCF7 cells; [2]
  Fold change KO/WT: -0.1493

## SPYTTTRYGSPINTFTVrPGTR
MCF7 cells; [4]
  Fold change KO/WT: -3.3255

## SPYTTTrYGSPINTFTVRPGTR
MCF7 CARM1 KO cells; mean of 3 replicates, log2
  CARM1 140-608/WT: -0.1037
  KO/WT: -2.259

## SSGSPYGGGYGSGGGSGGYGSrRF
MCF7 cells; [2]
  Fold change KO/WT: -0.5008

## SYSrGGGDQGYGSGR
MCF7 cells; [6]
  Fold change KO/WT: -0.3099

## SYrGGGGGGGGWR
MCF7 cells; [3]
  Fold change KO/WT: -0.08168

## TEQAGrNALLSDISK
MCF7 cells; [5]
  Fold change KO/WT: -1.119

## TGALPGPGPLSNPrLGGLPGPGPMSNPrAGGLLGAGPDPR
MCF7 cells; [4]
  Fold change KO/WT: -2.931

## TGALPGPGPLSNPrLGGLPGPGPMSNPrAGGLLGAGPDPrGGGPMGPGSGPNLR
MCF7 cells; [4]
  Fold change KO/WT: -2.513

## TGFTNIPSrYGTNNR
MCF7 cells; [6]
  Fold change KO/WT: -2.195

## TLLrGGMSLrGQNLLrGGR
MCF7 cells; [4]
  Fold change KO/WT: 0.06328

## TYSEVYPGQQYLQGGQYAPSTAQFAPSPGQPPAPSPSYPGHrLPLQQGMTQSLSVPGPTGLHYKPTR
MCF7 cells; [5]
  Fold change KO/WT: -2.904

## VPASPQSQSSSQSPLTPrPLSAEAFCPSPVTPRFQSPDPYSRPPSRPQSR
MCF7 cells; [1]
  Fold change KO/WT: -2.744
